Legend:
[1] = test system: Green Peach Aphid (Myzus persicae) (MYZUPE); experiment: Bioassays on Green Peach Aphid (GPA), foliar spray on cabbage seedlings; format: in vivo; details: 72 h, 200 ppm foliar spray on cabbage seedlings, graded after three days, Abbott-corrected % control, read-out: MYZUPE % Ctrl @ 200 ppm
Protocol: Certain molecules disclosed in this document were tested against GPA using procedures described in the following example. In the reporting of the results, the “Table 3: GPA (MYZUPE) and sweetpotato whitefly-crawler (BEMITA) Rating Table” was used (See Table Section).
Cabbage seedlings grown in 3-inch pots, with 2-3 small (3-5 cm) true leaves, were used as test substrate. The seedlings were infested with 20-50 GPA (wingless adult and nymph stages) one day prior to chemical application. Four pots with individual seedlings were used for each treatment. Test compounds (2 mg) were dissolved in 2 mL of acetone/methanol (1:1) solvent, forming stock solutions of 1000 ppm test compound. The stock solutions were diluted 5× with 0.025% Tween 20 in H2O to obtain the solution at 200 ppm test compound. A hand-held aspirator-type sprayer was used for spraying a solution to both sides of […] leaves until runoff. Reference plants (solvent check) were sprayed with the diluent only containing 20% by volume of acetone/methanol (1:1) solvent. Treated plants were held in a holding room for three days at approximately 25° C. and ambient relative humidity (RH) prior to grading. […] Percent Control was measured by using Abbott's correction formula (W. S. Abbott, “A Method of Computing the Effectiveness of an Insecticide” J. Econ. Entomol. 18 (1925), pp. 265-267) as follows. […]

[2] = test system: Sweetpotato Whitefly-Crawler (Bemisia tabaci) (BEMITA); experiment: Insecticidal test for sweetpotato whitefly-crawler in foliar spray assay on cotton plants; format: in vivo; details: 200 ppm foliar spray on cotton plants, graded after 8-9 days, Abbott-corrected % control, read-out: BEMITA % Ctrl @ 200 ppm
Protocol: Cotton plants grown in 3-inch pots, with 1 small (3-5 cm) true leaf, were used as test substrate. The plants were placed in a room with whitefly adults. Adults were allowed to deposit eggs for 2-3 days. After a 2-3 day egg-laying period, plants were taken from the adult whitefly room. Adults were blown off leaves using a hand-held Devilbiss sprayer (23 psi). Plants with egg infestation (100-300 eggs per plant) were placed in a holding room for 5-6 days at 82° F. and 50% RH for egg hatch and crawler stage to develop. Four cotton plants were used for each treatment. Compounds (2 mg) were dissolved in 1 mL of acetone solvent, forming stock solutions of 2000 ppm. The stock solutions were diluted 10× with 0.025% Tween 20 in H2O to obtain a test solution at 200 ppm. A hand-held Devilbiss sprayer was used for spraying a solution to both sides of cotton leaf until runoff. Reference plants (solvent check) were sprayed with the diluent only. Treated plants were held in a holding room for 8-9 days at approximately 82° F. and 50% RH prior to grading. Evaluation was conducted by counting the number of live nymphs per plant under a microscope. Insecticidal activity was measured by using Abbott's correction formula and presented in “Table 4. Biological Data for GPA (MYZUPE) and sweetpotato whitefly-crawler (BEMITA)” (see column “BEMITA”): […]

C#CCN(C(=O)CCSC)n1cc(-c2cccnc2)nc1C [Compound 42]
inhibition at 200 ppm [1]: 0 to 80%
inhibition at 200 ppm [2]: 80 to 100%

From patent US20140296068A1, “PESTICIDAL COMPOSITIONS AND PROCESSES RELATED THERETO” (Dow AgroSciences LLC, priority 2011, published 2014)
